In patent publication US9701646B2, “Small molecule inhibitors of PI3-kinase signaling” (Tufts University, priority 2013, dated 2017):
Like-named read-outs stand apart in the source and are kept apart here.

Columns and labels:
[1] = tested on: A2780 human ovarian cancer cells; test: Cell viability of A2780 cells, ATP assay; assay type: cell-based; conditions: for concentration at which cell viability was reduced by at least 50 percent / cell viability in combination with TRAIL / EC50: A2780, 24 h; for concentration at which cell viability was reduced by at least 50 percent: alone; for cell viability in combination with TRAIL: versus compound alone; for EC50: Homo sapiens
Procedure: A2780 human ovarian cancer cells were maintained in culture at 37° C., 5% CO2, complete medium for 24 h in the presence of various final concentrations of DM-PIT-1, YK-NCL-176, YK-NCL-198, or NK-YCL-240, each in DMSO, with or without 1 μg/mL TRAIL. DMSO alone was used as a negative control. Following the incubation, cell viability was measured using an ATP assay.
A2780 human ovarian cancer cells were maintained in culture at 37° C., 5% CO2, complete medium for 24 h in the presence of various final concentrations of DM-PIT-1, YK-NCL-217, YK-NCL-218, NK-YCL-219, YK-NCL-220, YK-NCL-234, or YK-NCL-241, each in DMSO, with or without 1 μg/mL TRAIL. DMSO alone was used as a negative control. Following the incubation, cell viability was measured using an ATP assay.

[2] = tested on: U87MG human glioblastoma cells; test: Cell viability of U87MG cells, ATP assay; assay type: cell-based; conditions: for EC50: Homo sapiens, U-87 MG, 24 h
Procedure: U87MG human glioblastoma cells were maintained in culture at 37° C., 5% CO2, complete medium for 24 h in the presence of various final concentrations of YK-NCL-176, YK-NCL-177, YK-NCL-178, YK-NCL-179, YK-NCL-180, YK-NCL-183, YK-NCL-184, YK-NCL-185, YK-NCL-186, YK-NCL-187, YK-NCL-188, YK-NCL-189, YK-NCL-190, YK-NCL-191, YK-NCL-192, YK-NCL-193, YK-NCL-194, YK-NCL-195, YK-NCL-196, YK-NCL-197, NK-YCL-198, or YK-NCL-199, each in DMSO, with or without 1 μg/mL TRAIL. DMSO alone was used as a negative control. Following the incubation, cell viability was measured using an ATP assay.

[3] = tested on: A2780 cells; test: In vitro wound closure (cell migration), A2780; assay type: cell-based, human; conditions: A2780, up to 76 h
Procedure: A2780 cells and T47D cells were grown to confluence in separate cultures under conditions of 37° C., 5% CO2, and complete medium. At time zero, a pipette tip was dragged across the cells, producing a linear defect in the confluent layer of cells. Medium was then supplemented with various concentrations of DM-PIT-1, YK-NCL-176, or YK-NCL-240, or an equivalent volume of DMSO alone, and cells were maintained in culture for an additional 76 h. Linear defects were viewed with a microscope at 0, 21, 47, 69, and 76 h following addition of test agent, and the width of the defect was quantitated at each time point. This in vitro assay represents a model of wound closure.

[4] = Micellar drug loading by reverse phase HPLC; assay type: physicochemical; conditions: PEG-PE micelles, PEG-PE 13.07 mg/mL, n = 3 with SD
Procedure: Drug incorporation efficiency was measured by reverse phase HPLC using an Xbridge C18 ([…]) column (Waters Corporation, Milford, Mass.) on a Hitachi Elite LaChrom HPLC with autosampler (Pleasanton, Calif.). The HPLC method was modified from previously published method. Skidan I et al., J Chromatogr B Analyt Technol Biomed Life Sci 879:1610-1616 (2011). The mobile phase consisted of either 70:30 acetonitrile:water (DM-PIT-1) or 60:40 acetonitrile:water (NCL-176, NCL-179, NCL-198, NCL-240) with a flow rate of 1 mL/min. Detection of drug was performed at a wavelength corresponding to a peak on the absorption spectrum (DM-PIT-1: 320 nm, NCL-176: 260 nm, NCL-179: 295 nm, NCL-198: 295 nm, NCL-240: 300 nm). Sample injections were kept constant at 50 μL and the sample runtime was 10 min. Concentration of drug was determined by measuring the area under curve of the peak. Standard curves of stock drug in acetonitrile from concentrations of 10 μg/mL to 15 ng/mL were used to determine incorporation of drug in micelles. 5 μL of dialyzed drug-loaded micelles were diluted in 495 μL acetonitrile to destroy micelles.

[5] = Micellar drug release by dialysis; assay type: physicochemical; conditions: 37° C.
Procedure: Drug-loaded micelles were analyzed for their in vitro drug release profile at 37° C. in 1×PBS pH 7.4 over 48 hrs. Micelles were prepared as described previously. 500 μL of drug-loaded micelles were aliquoted into Spectra/Pro® regenerated cellulose dialysis membranes with a MWCO of 1,000 Da and dialyzed against a large excess of 1×PBS pH 7.4. At predetermined times, dialysis bags were opened and aliquots of sample were taken and diluted with 200 μL acetonitrile. Drug concentration was determined by HPLC using previously described methods.

[6] = tested on: A2780 ovarian carcinoma; test: A2780 cell viability, CellTiter-Blue, free and micellar formulations; assay type: cell-based, human; conditions: for cytotoxicity on addition of TRAIL to the formulation: A2780, micellar formulation plus TRAIL; for cytotoxicity as free compound compared to DM-PIT-1: A2780, 24 h
Procedure: Cell viability of A2780 ovarian carcinoma was measured using CellTiter-Blue® (Promega, Madison, Wis.) viability assay. Briefly, cells were seeded in 96-well plates according to proper cell densities (3,000-5,000 cells). After 24 h incubation in 5% CO2 at 37° C., cells were treated with formulations at various concentrations for 24 h in serum complete media. After 24 h treatment, media was removed, the wells were washed with serum complete media and replaced with 50 μL media and 10 μL CellTiter-Blue®. Cell viability was evaluated after 4 h of incubation at 37° C. at 5% CO2 by measuring the fluorescence (ex. 550 nm, em. 590 nm) using a Synergy HT multi-detection microplate reader (Biotek, Winooski, Vt.).

[7] = tested on: T47D human breast cancer cells; test: Cell viability of T47D cells; assay type: cell-based
[8] = tested on: DU145 human prostate cancer cells; test: Cell viability of DU145 cells; assay type: cell-based
[9] = molecular target: Akt PH domain (Homo sapiens, UniProt P31749); test: Inhibition of Akt PH domain binding to PIP3; conditions: in vitro
[10] = mouse, in vivo
[11] = in DMSO, without TRAIL, read-out: EC50 alone
[12] = with 1 μg/mL TRAIL, read-out: EC50 with TRAIL

Akt PH domain, sequence (P31749 5-108 limits assumed): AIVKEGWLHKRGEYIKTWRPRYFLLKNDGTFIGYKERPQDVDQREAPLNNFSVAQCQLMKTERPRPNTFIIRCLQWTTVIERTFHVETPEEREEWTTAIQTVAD

SMILES	concentration at which cell viability was reduced by at least 50 percent [1] [µM]	cell viability in combination with TRAIL ([1]; with 1 μg/mL TRAIL)	EC50 [2, 11] [µM]	EC50 [2, 12] [µM]	inhibition of cell migration (wound closure) [3]	cytotoxicity on addition of TRAIL to the formulation [6]	drug released from micelles ([5]; 1×PBS pH 7.4, after 48 h) [%]	cytotoxicity as free compound compared to DM-PIT-1 [6]	other results
O=C(c1ccccc1)c1cn(-c2cc(Cl)ccc2O)nn1 [YK-NCL-176, (1-(5-Chloro-2-hydroxyphenyl)-1H-1,2,3-triazol-4-yl)(phenyl)methanone]	25	further reduced cell viability	104	51.6	significantly more effectively than DM-PIT-1	markedly increased cytotoxicity	–	–	Loading Eff. [4]: slightly lower loading; drug released from micelles ([5]; 1×PBS pH 7.4, at 10 h): completely released
Oc1ccc(Cl)cc1-n1cc(C(O)(c2cc(C(F)(F)F)cc(C(F)(F)F)c2)c2cn(-c3cc(Cl)ccc3O)nn2)nn1 [YK-NCL-198, 2,2′-(((3,5-Bis(trifluoromethyl)phenyl)(hydroxy)methylene)bis(1H-1,2,3-triazole-4,1-diyl))bis(4-chlorophenol)]	12.5	further reduced cell viability	34.8	18.8	–	–	40	improved cytotoxicity properties	melting point: 214 °C
O=C(c1cc(C(F)(F)F)cc(C(F)(F)F)c1)c1cn(-c2cc(Cl)ccc2O)nn1 [YK-NCL-240, (3,5-Bis(trifluoromethyl)phenyl)(1-(5-chloro-2-hydroxyphenyl)-1H-1,2,3-triazol-4-yl)methanone]	< 6.25	further reduced cell viability	–	–	significantly more effectively than either DM-PIT-1 or YK-NCL-176	markedly increased cytotoxicity	60	improved cytotoxicity properties	improvement of EC50 compared to DM-PIT-1 alone ([1]; A2780, alone): 15 fold; improvement of EC50 compared to the combination of DM-PIT-1 and TRAIL ([1]; A2780, with TRAIL): 20 fold; EC50 [1, 11]: 1.85 µM; EC50 [1, 12]: 1.11 µM; effect of combination with TRAIL on cell viability ([2]; 1 μg/mL TRAIL): synergistic effect; in vitro cell viability ([2]; in DMSO, alone): reduce in vitro cell viability; effect of combination with TRAIL on cell viability ([7]; 1 μg/mL TRAIL): synergistic effect; in vitro cell viability ([7]; in DMSO, alone): reduce in vitro cell viability; effect of combination with TRAIL on cell viability ([8]; DU145, 1 μg/mL TRAIL): synergistic effect; in vitro cell viability ([8]; DU145, in DMSO, alone): reduce in vitro cell viability; binding of the Akt PH domain to PIP3 [9]: robustly inhibited; non-toxic dose [10]: up to 50 mg/kg
